Experimental data published in PubChem BioAssay (NCI).
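Method: 48-hour compound exposure of cells in 96-well plates, five concentrations, linear interpolation of endpoints. The concentration for full growth arrest is given as TGI.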

Assays:
Assay in all cases: growth of human tumour cells (NCI), 48 h
HCC-2998 colon = tested on: HCC-2998 colon
SK-MEL-5 melanoma = tested on: SK-MEL-5 melanoma
SF-295 CNS = tested on: SF-295 CNS
U251 CNS = tested on: U251 CNS
UO-31 renal = tested on: UO-31 renal
EKVX NSCLC = tested on: EKVX NSCLC
HOP-62 NSCLC = tested on: HOP-62 NSCLC
HL-60(TB) leukemia = tested on: HL-60(TB) leukemia
SNB-19 CNS = tested on: SNB-19 CNS
SF-268 CNS = tested on: SF-268 CNS
SNB-75 CNS = tested on: SNB-75 CNS
T-47D breast = tested on: T-47D breast
NCI-H522 lung = tested on: NCI-H522 lung
MCF7 breast = tested on: MCF7 breast
NCI-H23 lung = tested on: NCI-H23 lung
OVCAR-8 ovarian = tested on: OVCAR-8 ovarian
IGROV1 ovarian = tested on: IGROV1 ovarian
UACC-62 melanoma = tested on: UACC-62 melanoma
CCRF-CEM leukemia = tested on: CCRF-CEM leukemia
TK-10 renal = tested on: TK-10 renal
MDA-N = tested on: MDA-N
SR leukemia = tested on: SR leukemia
HT29 colon = tested on: HT29 colon
COLO 205 colon = tested on: COLO 205 colon
786-0 renal = tested on: 786-0 renal
NCI-H460 lung = tested on: NCI-H460 lung
M14 melanoma = tested on: M14 melanoma
PC-3 prostate = tested on: PC-3 prostate
OVCAR-4 ovarian = tested on: OVCAR-4 ovarian
SF-539 CNS = tested on: SF-539 CNS
SK-OV-3 ovarian = tested on: SK-OV-3 ovarian
HCT-15 colon = tested on: HCT-15 colon
SN12C renal = tested on: SN12C renal
SK-MEL-28 melanoma = tested on: SK-MEL-28 melanoma
SW-620 colon = tested on: SW-620 colon
K-562 leukemia = tested on: K-562 leukemia
OVCAR-3 ovarian = tested on: OVCAR-3 ovarian
A549 NSCLC = tested on: A549 NSCLC
HCT-116 colon = tested on: HCT-116 colon
LOX IMVI melanoma = tested on: LOX IMVI melanoma
DU-145 prostate = tested on: DU-145 prostate
KM12 colon = tested on: KM12 colon
MDA-MB-231 breast = tested on: MDA-MB-231 breast
MDA-MB-435 = tested on: MDA-MB-435
OVCAR-5 ovarian = tested on: OVCAR-5 ovarian
BT-549 breast = tested on: BT-549 breast
UACC-257 melanoma = tested on: UACC-257 melanoma
HOP-92 NSCLC = tested on: HOP-92 NSCLC
MOLT-4 leukemia = tested on: MOLT-4 leukemia
RPMI-8226 leukemia = tested on: RPMI-8226 leukemia
SK-MEL-2 melanoma = tested on: SK-MEL-2 melanoma
NCI-H226 lung = tested on: NCI-H226 lung
ACHN renal = tested on: ACHN renal
MALME-3M melanoma = tested on: MALME-3M melanoma
RXF 393 renal = tested on: RXF 393 renal
CAKI-1 renal = tested on: CAKI-1 renal
NCI/ADR-RES ovarian = tested on: NCI/ADR-RES ovarian
A498 renal = tested on: A498 renal

CC(=O)NC(C)(C)C1CC=C(C)/C(=N\O)C1 (centres undefined)
TGI (HCC-2998 colon): > 100 µM
TGI (SK-MEL-5 melanoma): > 100 µM
TGI (SF-295 CNS): > 100 µM
TGI (U251 CNS): > 100 µM
TGI (UO-31 renal): > 100 µM
TGI (EKVX NSCLC): > 100 µM
TGI (HOP-62 NSCLC): > 100 µM
TGI (HL-60(TB) leukemia): > 100 µM
TGI (SNB-19 CNS): > 100 µM
TGI (SF-268 CNS): > 100 µM
TGI (SNB-75 CNS): > 100 µM
TGI (T-47D breast): > 100 µM
TGI (NCI-H522 lung): > 100 µM
TGI (MCF7 breast): > 100 µM
TGI (NCI-H23 lung): > 100 µM
TGI (OVCAR-8 ovarian): > 100 µM
TGI (IGROV1 ovarian): > 100 µM
TGI (UACC-62 melanoma): > 100 µM
TGI (CCRF-CEM leukemia): > 100 µM
TGI (TK-10 renal): > 100 µM
TGI (MDA-N): > 100 µM
TGI (SR leukemia): > 100 µM
TGI (HT29 colon): > 100 µM
TGI (COLO 205 colon): > 100 µM
TGI (786-0 renal): > 100 µM
TGI (NCI-H460 lung): > 100 µM
TGI (M14 melanoma): > 100 µM
TGI (PC-3 prostate): > 100 µM
TGI (OVCAR-4 ovarian): > 100 µM
TGI (SF-539 CNS): > 100 µM
TGI (SK-OV-3 ovarian): > 100 µM
TGI (HCT-15 colon): > 100 µM
TGI (SN12C renal): > 100 µM
TGI (SK-MEL-28 melanoma): > 100 µM
TGI (SW-620 colon): > 100 µM
TGI (K-562 leukemia): > 100 µM
TGI (OVCAR-3 ovarian): > 100 µM
TGI (A549 NSCLC): > 100 µM
TGI (HCT-116 colon): > 100 µM
TGI (LOX IMVI melanoma): > 100 µM
TGI (DU-145 prostate): > 100 µM
TGI (KM12 colon): > 100 µM
TGI (MDA-MB-231 breast): > 100 µM
TGI (MDA-MB-435): > 100 µM
TGI (OVCAR-5 ovarian): > 100 µM
TGI (BT-549 breast): > 100 µM
TGI (UACC-257 melanoma): > 100 µM
TGI (HOP-92 NSCLC): > 100 µM
TGI (MOLT-4 leukemia): > 100 µM

C=C1[C@@H](OC(C)=O)[C@H]2[C@@H](OC(C)=O)[C@@](C)(OC(C)=O)C[C@]2(OC(C)=O)C(=O)[C@@H](C)/C=C/C(C)(C)C(=O)C[C@H]1OC(C)=O
TGI (HCC-2998 colon): > 100 µM
TGI (SK-MEL-5 melanoma): > 100 µM
TGI (SF-295 CNS): > 100 µM
TGI (RPMI-8226 leukemia): > 100 µM
TGI (U251 CNS): > 100 µM
TGI (UO-31 renal): > 100 µM
TGI (EKVX NSCLC): > 100 µM
TGI (HOP-62 NSCLC): > 100 µM
TGI (SNB-19 CNS): > 100 µM
TGI (SNB-75 CNS): > 100 µM
TGI (T-47D breast): > 100 µM
TGI (NCI-H522 lung): > 100 µM
TGI (MCF7 breast): > 100 µM
TGI (SK-MEL-2 melanoma): > 100 µM
TGI (NCI-H23 lung): > 100 µM
TGI (OVCAR-8 ovarian): > 100 µM
TGI (IGROV1 ovarian): > 100 µM
TGI (UACC-62 melanoma): > 100 µM
TGI (CCRF-CEM leukemia): > 100 µM
TGI (NCI-H226 lung): > 100 µM
TGI (TK-10 renal): > 100 µM
TGI (MDA-N): > 100 µM
TGI (HT29 colon): > 100 µM
TGI (COLO 205 colon): > 100 µM
TGI (786-0 renal): > 100 µM
TGI (M14 melanoma): > 100 µM
TGI (PC-3 prostate): > 100 µM
TGI (OVCAR-4 ovarian): > 100 µM
TGI (SF-539 CNS): > 100 µM
TGI (ACHN renal): > 100 µM
TGI (SK-OV-3 ovarian): > 100 µM
TGI (MALME-3M melanoma): > 100 µM
TGI (RXF 393 renal): > 100 µM
TGI (HCT-15 colon): > 100 µM
TGI (SN12C renal): > 100 µM
TGI (SK-MEL-28 melanoma): > 100 µM
TGI (K-562 leukemia): > 100 µM
TGI (OVCAR-3 ovarian): > 100 µM
TGI (A549 NSCLC): > 100 µM
TGI (CAKI-1 renal): > 100 µM
TGI (HCT-116 colon): > 100 µM
TGI (LOX IMVI melanoma): > 100 µM
TGI (DU-145 prostate): > 100 µM
TGI (KM12 colon): > 100 µM
TGI (MDA-MB-231 breast): > 100 µM
TGI (NCI/ADR-RES ovarian): > 100 µM
TGI (MDA-MB-435): > 100 µM
TGI (OVCAR-5 ovarian): > 100 µM
TGI (UACC-257 melanoma): > 100 µM
TGI (HOP-92 NSCLC): > 100 µM
TGI (MOLT-4 leukemia): > 100 µM

Cc1ccc(N=NC(=O)NNc2ccc(C)c([N+](=O)[O-])c2)cc1[N+](=O)[O-]
TGI (HCC-2998 colon): 33 µM
TGI (SK-MEL-5 melanoma): 77.7 µM
TGI (RPMI-8226 leukemia): 85.8 µM
TGI (U251 CNS): > 100 µM
TGI (UO-31 renal): 82.8 µM
TGI (HOP-62 NSCLC): 63.5 µM
TGI (HL-60(TB) leukemia): 50.4 µM
TGI (SNB-19 CNS): > 100 µM
TGI (SF-268 CNS): > 100 µM
TGI (SNB-75 CNS): 95.9 µM
TGI (T-47D breast): > 100 µM
TGI (NCI-H522 lung): 36.8 µM
TGI (MCF7 breast): 69.5 µM
TGI (SK-MEL-2 melanoma): 30.3 µM
TGI (NCI-H23 lung): > 100 µM
TGI (OVCAR-8 ovarian): > 100 µM
TGI (IGROV1 ovarian): > 100 µM
TGI (UACC-62 melanoma): 50.2 µM
TGI (CCRF-CEM leukemia): > 100 µM
TGI (NCI-H226 lung): > 100 µM
TGI (TK-10 renal): > 100 µM
TGI (MDA-N): > 100 µM
TGI (SR leukemia): > 100 µM
TGI (HT29 colon): > 100 µM
TGI (786-0 renal): 90.4 µM
TGI (NCI-H460 lung): 77 µM
TGI (M14 melanoma): > 100 µM
TGI (PC-3 prostate): > 100 µM
TGI (OVCAR-4 ovarian): 82.6 µM
TGI (A498 renal): 63.2 µM
TGI (ACHN renal): 90.3 µM
TGI (MALME-3M melanoma): 83.3 µM
TGI (HCT-15 colon): > 100 µM
TGI (SN12C renal): > 100 µM
TGI (SK-MEL-28 melanoma): 77.4 µM
TGI (SW-620 colon): > 100 µM
TGI (K-562 leukemia): 50.3 µM
TGI (OVCAR-3 ovarian): 57.4 µM
TGI (A549 NSCLC): > 100 µM
TGI (CAKI-1 renal): > 100 µM
TGI (HCT-116 colon): > 100 µM
TGI (LOX IMVI melanoma): 36.7 µM
TGI (DU-145 prostate): > 100 µM
TGI (MDA-MB-231 breast): > 100 µM
TGI (MDA-MB-435): > 100 µM
TGI (OVCAR-5 ovarian): > 100 µM
TGI (BT-549 breast): > 100 µM
TGI (UACC-257 melanoma): 88.3 µM
TGI (MOLT-4 leukemia): 65.5 µM
